The target of data set [1] is T1, Recombinant human VAP-1 SSAO (Homo sapiens, UniProt Q16853).
T1 construct: expressed in transfected cells; host or cells: Chinese Hamster Ovary (CHO) cells; NP40 lysate supernatant used directly
T1 sequence (Q16853 1-763): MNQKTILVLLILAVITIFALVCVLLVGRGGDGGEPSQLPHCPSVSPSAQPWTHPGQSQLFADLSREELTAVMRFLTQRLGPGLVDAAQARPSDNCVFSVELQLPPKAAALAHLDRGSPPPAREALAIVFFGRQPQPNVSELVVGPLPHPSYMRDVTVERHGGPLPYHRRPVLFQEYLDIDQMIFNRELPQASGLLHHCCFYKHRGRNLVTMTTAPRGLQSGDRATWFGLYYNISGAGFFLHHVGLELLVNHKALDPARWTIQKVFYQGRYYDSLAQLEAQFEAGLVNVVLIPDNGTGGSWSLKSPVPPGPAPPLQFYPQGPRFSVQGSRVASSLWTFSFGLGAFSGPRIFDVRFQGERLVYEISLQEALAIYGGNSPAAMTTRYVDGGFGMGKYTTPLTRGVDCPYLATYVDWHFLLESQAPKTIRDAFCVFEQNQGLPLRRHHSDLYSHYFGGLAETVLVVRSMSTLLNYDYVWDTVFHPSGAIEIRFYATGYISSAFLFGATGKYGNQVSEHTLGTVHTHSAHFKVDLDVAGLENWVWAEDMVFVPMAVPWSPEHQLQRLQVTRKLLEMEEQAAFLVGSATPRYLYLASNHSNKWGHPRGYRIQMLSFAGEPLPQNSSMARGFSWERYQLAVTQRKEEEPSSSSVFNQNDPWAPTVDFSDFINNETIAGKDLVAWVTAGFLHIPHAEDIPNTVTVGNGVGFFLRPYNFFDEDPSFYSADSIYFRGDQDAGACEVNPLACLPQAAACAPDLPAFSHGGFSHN
Description: In vitro inhibition of VAP-1 SSAO activity (coupled colourimetric method). It is filed as biochemical. The following applies: for Selectivity for VAP-1 SSAO over MAO: ratio of total rat MAO IC50 to human VAP-1 SSAO IC50; for pIC50: recombinant human VAP-1 SSAO in CHO cell lysate, 1 mM benzylamine, pH 7.6, 37° C., read-out: VAP-1 SSAO inhibitory activity IC50. On the procedure: VAP-1 SSAO activity was measured using the coupled colourimetric method essentially as described for monoamine oxidase and related enzymes (Holt, A., et al., Anal. Biochem. 244:384-392 (1997)). Recombinant human VAP-1 SSAO expressed in Chinese Hamster Ovary (CHO) cells was used as a source of VAP-1 SSAO for activity measurements. Native CHO cells have negligible SSAO activity. These cells and their culture have previously been described (Smith, D. J., et al., J. Exp. Med. 188:17-27 (1998)). A cell lysate was prepared by suspending approximately 3.6×10^8 cells in 25 ml lysis buffer (150 mM NaCl, 10 mM Tris-Base pH 7.2, 1.5 mM MgCl2, 1% NP40) and incubating at 4° C. overnight on a rotating table. The lysate was clarified by centrifugation at 18000 g for 5 min at room temperature and the supernatant used directly in the assay. The VAP1 SSAO assay was performed in 96 well microtitre plates as follows. To each well was added a predetermined amount of inhibitor if required. The amount of inhibitor varied in each assay but was generally at a final concentration of between 1 nM and 50 μM. Controls lacked inhibitor. The inhibitor was in total volume of […] in water. The following reagents were then added. 0.2M potassium phosphate buffer pH 7.6 to a total reaction volume of 200 μl, 45 μl of freshly made chromogenic solution containing 1 mM 2,4-dichlorophenol, 500 μM 4-aminoantipyrine and 4 U/ml horseradish peroxidase and an amount of CHO cell lysate containing VAP-1 SSAO that caused a change of 0.6 A490 per h. This was within the linear response range of the assay. The plates were incubated for 30 min at 37° C. and the background absorbance measured at 490 nm using a Wallac Victor II multilabel counter. To initiate the enzyme reaction 20 μl 10 mM benzylamine (final concentration=1 mM) was added and the plate incubated for 1 h at 37° C. The increase in absorbance, reflecting VAP-1 SSAO activity, was measured at490 nm. Inhibition was presented as percent inhibition compared to control after correcting for background absorbance and IC50 values calculated using GraphPad Prism.

The text below walks through data of patent publication US6982286B2, “Carbocyclic hydrazino inhibitors of copper-containing amine oxidases” (Biotie Therapies Corp., priority 2001, dated 2006).

pIC50: −log10 of the molar value. Where a name gives a salt, the structure may show the parent alone.

With `CN(N)[C@H]1Cc2ccccc2[C@@H]1O` [Compound 1, (1S,2S)-2-(1-methylhydrazino)-1-indanol hydrogenmaleate], in data set [1], the “Selectivity for VAP-1 SSAO over MAO” value is reported as 31 and the pIC50 is 6.15. With `CN(N)[C@@H]1Cc2ccccc2[C@H]1O` [Compound 8, (1R,2R)-2-(1-methylhydrazino)-1-indanol fumarate], the “Selectivity for VAP-1 SSAO over MAO” value in data set [1] (fumarate) was found to be 21. Moreover, the pIC50 in data set [1] is 6.25. As for `CN(N)[C@@H]1Cc2ccccc2[C@H]1O` [Compound 12, (1R,2R)-2-(1-methylhydrazino)-1-indanol (S,S)-tartrate], in data set [1], the “Selectivity for VAP-1 SSAO over MAO” value is on record as 30 and the pIC50 was 6.18. In the same order, the values of `CN(N)[C@@H]1Cc2ccccc2[C@H]1O` [Compound 14, (1R,2R)-2-(1-methylhydrazino)-1-indanol (R,R)-tartrate] are 28 and 6.15. For `CN(N)[C@H]1Cc2ccccc2[C@@H]1O` [Compound 13, (1S,2S)2-(1-methylhydrazino)-1-indanol (R,R)-tartrate] the same measures were 29 and 6.18. As to `CN(N)[C@H]1Cc2ccccc2[C@@H]1O` (as salt: maleate) [Compound 1, (1S,2S)-2-(1-methylhydrazino)-1-indanol hydrogenmaleate], the melting point lay in the range of 104 to 106 °C. On to `CN(N)[C@@H]1Cc2ccccc2[C@H]1O` (relative stereo) [Compound 4, (1R,*2R*)-2-(1-Methylhydrazino)-1-indanol hydrogenmaleate], for which, in data set [1], the “Selectivity for VAP-1 SSAO over MAO” value is 32 and the pIC50 was 6.18. For `CN(N)[C@H]1Cc2ccccc2[C@@H]1O` [Compound 7, (1S,2S)-2-(1-methylhydrazino)-1-indanol fumarate], in data set [1] (fumarate), the “Selectivity for VAP-1 SSAO over MAO” value is 28. For the same compound, the pIC50 in data set [1] was 6.33. Take `CN(N)[C@@H]1Cc2ccccc2[C@H]1O` [Compound 10, (1R,2R)-2-(1-methylhydrazino)-1-indanol succinate]: in data set [1] (succinate), the “Selectivity for VAP-1 SSAO over MAO” value was 23. The pIC50 in data set [1] was 6.18. Compound `CO[C@H]1c2ccccc2C[C@@H]1N(C)N` (as salt: maleate) [Compound 19, (1S,2S)-2-(1-methylhydrazino)-1-methoxyindane Hydrogenmaleate] came in with a melting point of 113 to 115 °C. Take `CO[C@H]1c2ccccc2C[C@@H]1N(C)N` [Compound 19, (1S,2S)-2-(1-methylhydrazino)-1-methoxyindane Hydrogenmaleate]: in data set [1], the “Selectivity for VAP-1 SSAO over MAO” value turned out to be 3 and the pIC50 was 5.36.

In the case of `CN(N)[C@H]1Cc2ccccc2[C@@H]1O` [Compound 9, (1S,2S)-2-(1-methylhydrazino)-1-indanol succinate], the “Selectivity for VAP-1 SSAO over MAO” value in data set [1] (succinate) came to 26. Further, the pIC50 in data set [1] was 6.21. With `CN(N)[C@@H]1Cc2ccccc2[C@H]1O` [Compound 6, (1R,2R)-2-(1-methylhydrazino)-1-indanol hydrogenmaleate], in data set [1], the “Selectivity for VAP-1 SSAO over MAO” value is 29 and the pIC50 is 6.19. In the same order, the values of `CCN(N)[C@@H]1Cc2ccccc2[C@H]1O` (racemic) [Compound 2, (1R*,2R*)-2-(1-Ethylhydrazino)-1-indanol hydrogenmaleate] are 4 and 5.28. For `CN(N)[C@@H]1Cc2ccccc2[C@H]1O` (as salt: maleate) [Compound 6, (1R,2R)-2-(1-methylhydrazino)-1-indanol hydrogenmaleate], the melting point was 104 to 106 °C. With `CN(N)[C@H]1Cc2ccccc2[C@@H]1O` [Compound 11, (1S,2S)-2-(1-methylhydrazino)-1-indanol (S,S)-tartrate], in data set [1], the “Selectivity for VAP-1 SSAO over MAO” value was 31 and the negative logarithm of the IC50 (pIC50) was 6.15.
